From patent US20230212180A1, “SUBSTITUTED PYRAZINE COMPOUND, PHARMACEUTICAL COMPOSITION COMPRISING SAME, AND USE THEREOF” (Sichuan Kelun-Biotech Biopharmaceutical Co., Ltd., priority 2020, published 2023)
pIC50: −log10 of the molar value. Where two headings read alike, the source gives them in different places.

Columns and labels:
[1] = system: KYSE-520 cell (human esophageal squamous cell carcinoma cell); assay: Inhibition of the proliferation activity of KYSE-520 cell (CellTiter-Glo); format: cell-based; conditions: 120 h, KYSE-520 cell proliferation, 5 days
Experimental: Test Example 2: Experiment on the Inhibition of the Proliferation Activity of KYSE-520 Cell (Human Esophageal Squamous Cell Carcinoma Cell)
cell: KYSE-520 (JCRB Cell Bank);
(§1) kit: CellTiter-Glo® Luminescent Cell Viability Assay Kit (Promega).
(§2) inoculation amount of cell: 1500 cells/well;
incubation conditions for compound: 37° C., 5% CO2;
(§3) incubation duration: 5 days;
(§4) detecting temperature: room temperature;
(§5) chemiluminescence detection using the BMG PHERAstar FS reader.
(§6) Cells were cultured in a medium containing 10% fetal bovine serum under the culture conditions of 37° C. and 5% CO2. An appropriate amount of cells were plated into a 96-well plate and cultured overnight in an incubator to allow the cells to adhere to the wall. The following day, the medium was removed and a complete medium containing a pre-diluted compound was added and incubated at 37° C. for 5 days. On the fifth day, the detection reagent CellTiter-Glo® was added into each well. Chemiluminescence was adopted to detect the relative luminescence units (RLUs) of the wells.
(§7) The result of a well containing cell-free medium, treated with CellTiter-Glo®, was obtained as the blank value. Cell viability (%)=(sample RLU−blank RLU)/(vehicle RLU−blank RLU)×100%, and maximum inhibition rate (%)=100%−cell viabilitymax. conc. (%). The half maximal inhibitory concentration (IC50) of the compound was calculated by fitting the curve according to the four-parameter logistic model.

[2] = system: NCI-H358 cell (human non-small cell lung cancer cell); assay: Inhibition of the proliferation activity of NCI-H358 cell (CellTiter-Glo); format: cell-based; conditions: 120 h, 5 days
Experimental: Test Example 4: Experiment on the Inhibition of the Proliferation Activity of NCI-H358 Cell (Human Non-Small Cell Lung Cancer Cell)
cell: NCI-H358 (Nanjing CoBioer);
as §1, §2
incubation conditions for compounds: 37° C., 5% CO2;
as §3, §4, §5, §6, §7

CYP1A2 = biological target: T1, CYP1A2 (Homo sapiens, UniProt P05177); assay: Biochemical assay for CYP enzyme inhibition, P450-Glo CYP1A2 Screening System; format: in vitro ADME; conditions: for IC50: estimated from percentage inhibition, read-out: IC50 (μM) CYP1A2
T1 construct: purchased Promega
T1 sequence (P05177 1-516): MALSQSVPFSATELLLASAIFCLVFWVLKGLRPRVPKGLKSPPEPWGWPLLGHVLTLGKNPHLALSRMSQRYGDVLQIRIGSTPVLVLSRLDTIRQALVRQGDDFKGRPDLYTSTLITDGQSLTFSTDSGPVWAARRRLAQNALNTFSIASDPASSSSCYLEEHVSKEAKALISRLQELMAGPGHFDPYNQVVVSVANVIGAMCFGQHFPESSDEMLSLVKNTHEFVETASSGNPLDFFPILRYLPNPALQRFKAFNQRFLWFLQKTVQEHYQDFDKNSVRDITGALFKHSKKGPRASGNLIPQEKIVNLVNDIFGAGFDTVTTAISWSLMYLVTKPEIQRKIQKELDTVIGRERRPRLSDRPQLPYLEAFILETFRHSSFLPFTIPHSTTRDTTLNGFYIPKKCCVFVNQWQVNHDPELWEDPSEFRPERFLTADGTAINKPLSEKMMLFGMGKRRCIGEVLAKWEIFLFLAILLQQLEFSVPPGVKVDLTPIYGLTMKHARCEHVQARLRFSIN
Experimental: Test Example 5: Biochemical Assay for CYP Enzyme (Cytochrome P450) Inhibition
P450-Glo™ CYP1A2 Screening System, (Promega);
BMG PHERAstar FS Luminescent.
The experiments were carried out separately according to the instructions of the kits. The steps were as follows:
3.1. Inhibition Against CYP1A2:
Test group: The test compounds at different concentrations were added into a microplate, and Luciferin-ME (100 μM), K3PO4 (100 mM), and CYP1A2 (0.01 μmol/μL) were added into each well, and pre-incubated at room temperature for 10 min. Thereafter, an NADPH regeneration system was added. The mixture was reacted at room temperature for 30 min. Finally, an equal volume of detection buffer was added and incubated at room temperature for 20 min, followed by chemiluminescence detection.
Negative control group: The experimental method for the negative control group was the same as that for the test group, except that the test compound was not added.
Blank control group: The experimental method for the blank control group was the same as that for the test group, except that the test compound was not added and that CYP1A2 was replaced with CYP1A2 Membrance (0.01 μmol/μL).
Percentage inhibition=(1−(the chemiluminescent signal value of the test compound group at a certain test concentration−the chemiluminescent signal value of the blank control group)/(the chemiluminescent signal value of the negative control group−the chemiluminescent signal value of the blank control group))×100%.
When the percentage inhibition was between 30% and 80%, a single value or a value range of the half maximal inhibitory concentration (IC50) of the compound against the CYP enzyme was estimated based on the following equation: IC50=X×(1−percentage inhibition)/percentage inhibition, wherein X was the test concentration of the compound.

hERG = biological target: T2, hERG (Homo sapiens, UniProt Q12809); assay: Biochemical assay for hERG inhibition (Predictor hERG Fluorescence Polarization Assay Kit); format: binding
T2 construct: purchased ThermoFisher
T2 sequence (Q12809 whole entry): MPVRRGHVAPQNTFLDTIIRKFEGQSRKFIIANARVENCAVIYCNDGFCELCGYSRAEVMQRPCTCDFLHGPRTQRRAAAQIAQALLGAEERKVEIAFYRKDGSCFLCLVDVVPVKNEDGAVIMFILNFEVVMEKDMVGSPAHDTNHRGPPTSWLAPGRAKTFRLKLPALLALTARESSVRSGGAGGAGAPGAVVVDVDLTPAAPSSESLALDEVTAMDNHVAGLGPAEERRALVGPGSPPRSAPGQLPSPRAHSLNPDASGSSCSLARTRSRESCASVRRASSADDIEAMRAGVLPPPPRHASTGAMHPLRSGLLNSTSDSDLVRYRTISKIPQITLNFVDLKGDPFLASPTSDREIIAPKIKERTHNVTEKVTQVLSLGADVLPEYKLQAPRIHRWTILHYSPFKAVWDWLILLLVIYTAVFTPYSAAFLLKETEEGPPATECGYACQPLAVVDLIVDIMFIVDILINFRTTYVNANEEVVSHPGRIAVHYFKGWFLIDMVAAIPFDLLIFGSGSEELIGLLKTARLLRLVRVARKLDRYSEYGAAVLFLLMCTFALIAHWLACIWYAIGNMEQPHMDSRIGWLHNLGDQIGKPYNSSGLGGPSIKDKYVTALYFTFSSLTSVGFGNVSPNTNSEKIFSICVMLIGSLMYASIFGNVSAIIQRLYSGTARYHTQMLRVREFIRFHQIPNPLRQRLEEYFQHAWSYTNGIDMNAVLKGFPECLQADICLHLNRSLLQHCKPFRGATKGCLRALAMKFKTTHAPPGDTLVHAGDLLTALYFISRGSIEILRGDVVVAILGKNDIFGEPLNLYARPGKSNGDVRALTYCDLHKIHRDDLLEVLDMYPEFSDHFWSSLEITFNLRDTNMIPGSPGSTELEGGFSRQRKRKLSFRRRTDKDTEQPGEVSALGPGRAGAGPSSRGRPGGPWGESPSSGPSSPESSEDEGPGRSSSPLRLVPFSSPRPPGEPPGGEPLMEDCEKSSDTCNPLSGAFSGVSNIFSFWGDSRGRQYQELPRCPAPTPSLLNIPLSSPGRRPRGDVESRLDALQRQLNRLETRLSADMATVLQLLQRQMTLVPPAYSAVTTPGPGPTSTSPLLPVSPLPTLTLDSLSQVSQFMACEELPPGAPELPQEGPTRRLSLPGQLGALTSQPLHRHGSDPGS
Experimental: Test Example 3: Biochemical Assay for hERG Inhibition
kit: Predictor™ hERG Fluorescence Polarization Assay Kit (ThermoFisher) containing:
Compound E4031 as a positive control;
tracer concentration: 1 nM;
incubation duration: 2 hours;
parameters for microplate reader: BMG PHERAstar FS fluorescence microplate reader.
Test group: The test compounds at different concentrations were added into a microplate containing hERG cell membrane, and the tracer with a high affinity for hERG was then added into each well. The microplate was incubated at 25° C. for 2 hours before detection of the change in fluorescence polarization value (mP) (excitation wavelength: 540 nm; emission wavelength: 590 nm) using a multi-mode microplate reader.
Positive control group: The experimental method for the positive control group was the same as that for the test group, except that the test compound was replaced with 30 μM Compound E4031.
Blank control group: The experimental method for the blank control group was the same as that for the test group, except that the test compound was replaced with the hERG buffer and that the hERG cell membrane was not added.
Based on the data ratios, the percentage inhibition (%) of the compounds of the present disclosure against hERG at different concentrations was calculated and the range of the half maximal inhibitory concentration (IC50) of the compounds was determined. Percentage inhibition (%)=(1−(mP of the test compound−mP of the positive control group)/(mP of the blank control group−mP of the positive control group))×100%.

SMILES: CC(O)C1CN(c2nccc(Sc3cnc(N4CCC5(CC4)CO[C@@H](C)[C@H]5N)c(CO)n3)c2Cl)C1 (stereo partly drawn) [Example 17, 1-(1-(4-(5-((3S,4S)-4-amino-3-methyl-2-oxa-8-azaspiro[4.5]decan-8-yl)-6-(hydroxymethyl)pyrazin-2-ylthio)-3-chloropyridin-2-yl)azetidin-3-yl)ethan-1-ol]
- pIC50 [1]: 7.52
- pIC50 [2]: 7.41
- pIC50 (CYP1A2): < 5.00

SMILES: Cc1nc(N2CCC3(CC2)CO[C@@H](C)[C@H]3N)c(CO)nc1Sc1ccnc(N2CCCC2CO)c1Cl (stereo partly shown) [Example 1]
- pIC50 [1]: 6.44
- pIC50 (CYP1A2): < 5.00

SMILES: CC(C)(O)C1CN(c2nccc(Sc3ncc(N4CCC5(CC4)Cc4ncccc4[C@H]5N)nc3N)c2Cl)C1 [Example 46, (S)-2-(1-(4-(3-amino-5-(5-amino-5,7-dihydrospiro[cyclopenta[b]pyridine-6,4′-piperidin]-1′-yl)pyrazin-2-ylthio)-3-chloropyridin-2-yl)azetidin-3-yl)propan-2-ol]
- pIC50 [1]: 7.15
- pIC50 [2]: 7.55
- IC50 (hERG; competition with affinity tracer 1 nM, 2 hours, read-out: IC50 (μM), hERG inhibition assay): > 10 µM
- IC50 (CYP1A2): > 10 µM

SMILES: C[C@@H]1OCC2(CCN(c3ncc(Sc4ccnc(NCC5(O)CC5)c4Cl)nc3CO)CC2)[C@@H]1N [Example 15, 1-((4-(5-((3S,4S)-4-amino-3-methyl-2-oxa-8-azaspiro[4.5]decan-8-yl)-6-(hydroxymethyl)pyrazin-2-ylthio)-3-chloropyridin-2-ylamino)methyl)cyclopropan-1-ol]
- pIC50 [1]: 7.40
- pIC50 [2]: 7.40
- pIC50 (hERG): < 5.00
- pIC50 (CYP1A2): < 5.00

SMILES: CC(C)(O)C1CN(c2nccc(Sc3cnc(N4CCC5(CC4)COC[C@H]5N)c(CO)n3)c2Cl)C1 [Example 13, (S)-2-(1-(4-(5-(4-amino-2-oxa-8-azaspiro[4.5]decan-8-yl)-6-(hydroxymethyl)pyrazin-2-ylthio)-3-chloropyridin-2-yl)azetidin-3-yl)propan-2-ol]
- pIC50 [2]: 6.59
- pIC50 (hERG): < 5.00
- pIC50 (CYP1A2): < 5.00

SMILES: CC(C)(O)C1CN(c2nccc(Sc3cnc(N4CCC5(CC4)Cc4ccccc4[C@H]5N)c(CO)n3)c2Cl)C1 [Example 23, (S)-2-(1-(4-(5-(1-amino-1,3-dihydrospiro[indene-2,4′-piperidin]-1′-yl)-6-(hydroxymethyl)pyrazin-2-ylthio)-3-chloropyridin-2-yl)azetidin-3-yl)propan-2-ol]
- pIC50 [1]: 6.85
- pIC50 [2]: 8.30
- IC50 (CYP1A2): > 10 µM

SMILES: CC(C)(O)C1CN(c2nccc(Sc3cnc(N4CCC5(CC4)Cc4ncccc4[C@H]5N)c(CO)n3)c2Cl)C1 [Example 43, (S)-2-(1-(4-(5-(5-amino-5,7-dihydrospiro[cyclopenta[b]pyridine-6,4′-piperidin]-1′-yl)-6-(hydroxymethyl)pyrazin-2-ylthio)-3-chloropyridin-2-yl)azetidin-3-yl)propan-2-ol]
- pIC50 [1]: 7.40
- pIC50 [2]: 8.10
- IC50 (CYP1A2): > 10 µM

SMILES: Cc1nc(N2CCC3(CC2)CO[C@@H](C)[C@H]3N)c(CO)nc1Sc1ccnc(N2CC(CS(C)(=O)=O)C2)c1Cl [Example 25, (3-((3S,4S)-4-amino-3-methyl-2-oxa-8-azaspiro[4.5]decan-8-yl)-6-(3-chloro-2-(3-(methylsulfonylmethyl)azetidin-1-yl)pyridin-4-ylthio)-5-methylpyrazin-2-yl)methanol]
- pIC50 [2]: 6.82
- pIC50 (hERG): < 5.00
- pIC50 (CYP1A2): < 5.00

SMILES: C[C@@H]1OCC2(CCN(c3ncc(Sc4ccnc(N5CC(C(C)(C)O)C5)c4F)nc3CO)CC2)[C@@H]1N [Example 40, 2-(1-(4-(5-((3S,4S)-4-amino-3-methyl-2-oxa-8-azaspiro[4.5]decan-8-yl)-6-(hydroxymethyl)pyrazin-2-ylthio)-3-fluoropyridin-2-yl)azetidin-3-yl)propan-2-ol]
- pIC50 [2]: 7.52
- pIC50 (hERG): < 5.00
- pIC50 (CYP1A2): < 5.00

SMILES: COCC1CN(c2nccc(Sc3cnc(N4CCC5(CC4)CO[C@@H](C)[C@H]5N)c(CO)n3)c2Cl)C1 [Example 21, (3-((3S,4S)-4-amino-3-methyl-2-oxa-8-azaspiro[4.5]decan-8-yl)-6-(3-chloro-2-(3-(methoxymethyl)azetidin-1-yl)pyridin-4-ylthio)pyrazin-2-yl)methanol]
- pIC50 [1]: 6.96
- pIC50 [2]: 7.52
- pIC50 (CYP1A2): < 5.00

SMILES: C[C@@H]1OCC2(CCN(c3cnc(Sc4ccnc(N5CC(C(C)(C)O)C5)c4Cl)cn3)CC2)[C@@H]1N [Example 28, 2-(1-(4-(5-((3S,4S)-4-amino-3-methyl-2-oxa-8-azaspiro[4.5]decan-8-yl)pyrazin-2-ylthio)-3-chloropyridin-2-yl)azetidin-3-yl)propan-2-ol]
- pIC50 [2]: 6.89
- pIC50 (hERG): < 5.00
- pIC50 (CYP1A2): < 5.00

SMILES: CC(C)(O)C1CN(c2nccc(Sc3cnc(N4CCC5(CC4)Oc4ccccc4[C@H]5N)c(CO)n3)c2Cl)C1 [Example 22, (R)-2-(1-(4-(5-(3-amino-3H-spiro[benzofuran-2,4′-piperidin]-1′-yl)-6-(hydroxymethyl)pyrazin-2-ylthio)-3-chloropyridin-2-yl)azetidin-3-yl)propan-2-ol]
- pIC50 [1]: 7.30
- pIC50 [2]: 7.51
- IC50 (CYP1A2): > 10 µM

SMILES: C[C@@H]1OCC2(CCN(c3ncc(Sc4ccnc(N5CC(CC#N)C5)c4Cl)nc3CO)CC2)[C@@H]1N [Example 5, 2-(1-(4-(5-((3S,4S)-4-amino-3-methyl-2-oxa-8-azaspiro[4.5]decan-8-yl)-6-(hydroxymethyl)pyrazin-2-ylthio)-3-chloropyridin-2-yl)azetidin-3-yl)acetonitrile]
- pIC50 [1]: 7.22
- pIC50 [2]: 7.47
- pIC50 (CYP1A2): < 5.00

SMILES: C[C@@H]1OCC2(CCN(c3ncc(Sc4ccnc(N5CC(CO)C5)c4Cl)nc3CO)CC2)[C@@H]1N [Example 6, (3-((3S,4S)-4-amino-3-methyl-2-oxa-8-azaspiro[4.5]decan-8-yl)-6-(3-chloro-2-(3-(hydroxymethyl)azetidin-1-yl)pyridin-4-ylthio)pyrazin-2-yl)methanol]
- pIC50 [1]: 7.40
- pIC50 [2]: 7.13
- pIC50 (CYP1A2): < 5.00
